Test system: 935938-334-R-J1-PDC complex spheroid viability
Experiment: Anticancer human tumor 935938-334-R-J1-PDC patient-derived small intestine adenocarcinoma cell line growth inhibition [POLQ]
Settings: for IC50: curve of first compound; for viability, T/C: stronger effect = lower value
Procedure, shortened: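 Complex spheroid viability model combining PDC tumour cells with endothelial (HUVEC) and MSC stromal cells. Novobiocin, ART-558 or RP6685 were tested singly and in combination with standard and investigational anticancer drugs. Each was titrated in half-log steps from near clinical Cmax, or from 10 microM where Cmax was unknown.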

[1] = second compound 0.0316 µM, first compound 0.0316 µM
[2] = second compound 0.0316 µM, first compound 0.1 µM
[3] = second compound 0.1 µM, first compound 0.0316 µM
[4] = second compound 0.1 µM, first compound 0.1 µM
[5] = second compound 0.316 µM, first compound 0.0316 µM
[6] = second compound 0.316 µM, first compound 0.1 µM
[7] = second compound 1 µM, first compound 0.0316 µM
[8] = second compound 1 µM, first compound 0.1 µM
[9] = second compound 3.16 µM, first compound 0.0316 µM
[10] = second compound 3.16 µM, first compound 0.1 µM
[11] = second compound 10 µM, first compound 0.0316 µM
[12] = second compound 10 µM, first compound 0.1 µM
[13] = second compound 0.0316 µM, first compound 0.316 µM
[14] = second compound 0.0316 µM, first compound 1 µM
[15] = second compound 0.0316 µM, first compound 3.16 µM
[16] = second compound 0.0316 µM, first compound 10 µM
[17] = second compound 0.1 µM, first compound 0.316 µM
[18] = second compound 0.1 µM, first compound 1 µM
[19] = second compound 0.1 µM, first compound 3.16 µM
[20] = second compound 0.1 µM, first compound 10 µM
[21] = second compound 0.316 µM, first compound 0.316 µM
[22] = second compound 0.316 µM, first compound 1 µM
[23] = second compound 0.316 µM, first compound 3.16 µM
[24] = second compound 0.316 µM, first compound 10 µM
[25] = second compound 1 µM, first compound 0.316 µM
[26] = second compound 1 µM, first compound 1 µM
[27] = second compound 1 µM, first compound 3.16 µM
[28] = second compound 1 µM, first compound 10 µM
[29] = second compound 3.16 µM, first compound 0.316 µM
[30] = second compound 3.16 µM, first compound 1 µM
[31] = second compound 3.16 µM, first compound 3.16 µM
[32] = second compound 3.16 µM, first compound 10 µM
[33] = second compound 10 µM, first compound 0.316 µM
[34] = second compound 10 µM, first compound 1 µM
[35] = second compound 10 µM, first compound 3.16 µM
[36] = second compound 10 µM, first compound 10 µM
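Note: spheroids exposed to drugs for seven days before viability read.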
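Throughout, for viability, T/C: 100% = DMSO vehicle control wells.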

**Q.** Which results are given for `CC[C@@]1(O)C(=O)OCc2c1cc1n(c2=O)Cc2cc3c(CN(C)C)c(O)ccc3nc2-1` + Cc1cccc(N(C)C(=O)C2C(O)CCN2c2nc(C)cc(C(F)(F)F)c2C#N)c1?
**A.** IC50 (second compound 0.0316 µM): > 100 nM; IC50 (second compound 0.1 µM): > 100 nM; IC50 (second compound 0.316 µM): > 100 nM; IC50 (second compound 1 µM): 91.8 nM; IC50 (second compound 3.16 µM): > 100 nM; IC50 (second compound 10 µM): > 100 nM; viability, T/C (second compound 0.0316 µM, first compound 0.000316 µM): 123%; viability, T/C (second compound 0.0316 µM, first compound 0.001 µM): 111%; viability, T/C (second compound 0.0316 µM, first compound 0.00316 µM): 95.1%; viability, T/C (second compound 0.0316 µM, first compound 0.01 µM): 90.4%; viability, T/C [1]: 70.6%; viability, T/C [2]: 69.2%; viability, T/C (second compound 0.1 µM, first compound 0.000316 µM): 105%; viability, T/C (second compound 0.1 µM, first compound 0.001 µM): 113%; viability, T/C (second compound 0.1 µM, first compound 0.00316 µM): 109%; viability, T/C (second compound 0.1 µM, first compound 0.01 µM): 128%; viability, T/C [3]: 68.5%; viability, T/C [4]: 82.7%; viability, T/C (second compound 0.316 µM, first compound 0.000316 µM): 112%; viability, T/C (second compound 0.316 µM, first compound 0.001 µM): 102%; viability, T/C (second compound 0.316 µM, first compound 0.00316 µM): 118%; viability, T/C (second compound 0.316 µM, first compound 0.01 µM): 88%; viability, T/C [5]: 89.9%; viability, T/C [6]: 51.2%; viability, T/C (second compound 1 µM, first compound 0.000316 µM): 126%; viability, T/C (second compound 1 µM, first compound 0.001 µM): 115%; viability, T/C (second compound 1 µM, first compound 0.00316 µM): 92.9%; viability, T/C (second compound 1 µM, first compound 0.01 µM): 111%; viability, T/C [7]: 79.9%; viability, T/C [8]: 46.3%; viability, T/C (second compound 3.16 µM, first compound 0.000316 µM): 101%; viability, T/C (second compound 3.16 µM, first compound 0.001 µM): 92.9%; viability, T/C (second compound 3.16 µM, first compound 0.00316 µM): 112%; viability, T/C (second compound 3.16 µM, first compound 0.01 µM): 112%; viability, T/C [9]: 68.4%; viability, T/C [10]: 54%; viability, T/C (second compound 10 µM, first compound 0.000316 µM): 97%; viability, T/C (second compound 10 µM, first compound 0.001 µM): 95.3%; viability, T/C (second compound 10 µM, first compound 0.00316 µM): 84.7%; viability, T/C (second compound 10 µM, first compound 0.01 µM): 84.5%; viability, T/C [11]: 101%; viability, T/C [12]: 55.2%

**Q.** Which IC50 (second compound 0.0316 µM) does the source give for `COc1cc(C2c3cc4c(cc3C(OC3OC5COC(C)OC5C(O)C3O)C3COC(=O)C23)OCO4)cc(OC)c1O` (stereo unspecified) + COC1C(OC(N)=O)C(O)C(Oc2ccc3c(O)c(NC(=O)c4ccc(O)c(CC=C(C)C)c4)c(=O)oc3c2C)OC1(C)C here?
**A.** 1040 nM

**Q.** And the IC50 (second compound 0.1 µM)?
**A.** 683 nM

**Q.** What about the IC50 (second compound 0.316 µM) of the same compound?
**A.** 691 nM

**Q.** And the IC50 (second compound 1 µM)?
**A.** 569 nM

**Q.** And the IC50 (second compound 3.16 µM)?
**A.** 887 nM

**Q.** What about the IC50 (second compound 10 µM) of the same compound?
**A.** 706 nM

**Q.** What about the viability, T/C [1] of the same compound?
**A.** 97.7%

**Q.** What about the viability, T/C [2] of the same compound?
**A.** 81.4%

**Q.** And the viability, T/C [13]?
**A.** 70.2%

**Q.** And the viability, T/C [14]?
**A.** 47.3%

**Q.** And the viability, T/C [15]?
**A.** 39.5%

**Q.** And the viability, T/C [16]?
**A.** 29.4%

**Q.** What about the viability, T/C [3] of the same compound?
**A.** 105%

**Q.** And the viability, T/C [4]?
**A.** 94%

**Q.** And the viability, T/C [17]?
**A.** 67.3%

**Q.** And the viability, T/C [18]?
**A.** 41.8%

**Q.** And the viability, T/C [19]?
**A.** 30.8%

**Q.** And the viability, T/C [20]?
**A.** 30.7%

**Q.** What about the viability, T/C [5] of the same compound?
**A.** 134%

**Q.** And the viability, T/C [6]?
**A.** 85.2%

**Q.** And the viability, T/C [21]?
**A.** 80.4%

**Q.** What about the viability, T/C [22] of the same compound?
**A.** 32.8%

**Q.** What about the viability, T/C [23] of the same compound?
**A.** 27.5%

**Q.** And the viability, T/C [24]?
**A.** 26%

**Q.** And the viability, T/C [7]?
**A.** 105%

**Q.** What about the viability, T/C [8] of the same compound?
**A.** 126%

**Q.** And the viability, T/C [25]?
**A.** 62.2%

**Q.** And the viability, T/C [26]?
**A.** 57.6%

**Q.** And the viability, T/C [27]?
**A.** 26.7%

**Q.** And the viability, T/C [28]?
**A.** 30.6%

**Q.** And the viability, T/C [9]?
**A.** 78%

**Q.** What about the viability, T/C [10] of the same compound?
**A.** 108%

**Q.** What about the viability, T/C [29] of the same compound?
**A.** 83.3%

**Q.** What about the viability, T/C [30] of the same compound?
**A.** 46.7%

**Q.** And the viability, T/C [31]?
**A.** 28.9%

**Q.** What about the viability, T/C [32] of the same compound?
**A.** 32.6%

**Q.** What about the viability, T/C [11] of the same compound?
**A.** 96.9%

**Q.** And the viability, T/C [12]?
**A.** 75.9%

**Q.** And the viability, T/C [33]?
**A.** 68.7%

**Q.** What about the viability, T/C [34] of the same compound?
**A.** 43.9%

**Q.** And the viability, T/C [35]?
**A.** 27.4%

**Q.** What about the viability, T/C [36] of the same compound?
**A.** 35.5%

**Q.** With `COc1cccc2c1C(=O)c1c(O)c3c(c(O)c1C2=O)CC(O)(C(=O)CO)CC3OC1CC(N)C(O)C(C)O1` (stereo unspecified) + Cc1cccc(N(C)C(=O)C2C(O)CCN2c2nc(C)cc(C(F)(F)F)c2C#N)c1 as the compound, how does the IC50 (second compound 0.0316 µM) read?
**A.** 55.5 nM

**Q.** And the IC50 (second compound 0.1 µM)?
**A.** 87.4 nM

**Q.** And the IC50 (second compound 0.316 µM)?
**A.** 52 nM

**Q.** And the IC50 (second compound 1 µM)?
**A.** 75.3 nM

**Q.** What about the IC50 (second compound 3.16 µM) of the same compound?
**A.** 70.5 nM

**Q.** What about the IC50 (second compound 10 µM) of the same compound?
**A.** < 31.6 nM

**Q.** And the viability, T/C [1]?
**A.** 60.2%

**Q.** And the viability, T/C [2]?
**A.** 35.3%

**Q.** And the viability, T/C [13]?
**A.** 34.6%

**Q.** What about the viability, T/C [14] of the same compound?
**A.** 21.2%

**Q.** What about the viability, T/C [15] of the same compound?
**A.** 7.49%

**Q.** What about the viability, T/C [16] of the same compound?
**A.** 4.38%

**Q.** And the viability, T/C [3]?
**A.** 63.8%

**Q.** What about the viability, T/C [4] of the same compound?
**A.** 48.5%

**Q.** What about the viability, T/C [17] of the same compound?
**A.** 31.6%

**Q.** What about the viability, T/C [18] of the same compound?
**A.** 23.7%

**Q.** And the viability, T/C [19]?
**A.** 7.55%

**Q.** What about the viability, T/C [20] of the same compound?
**A.** 3.7%

**Q.** What about the viability, T/C [5] of the same compound?
**A.** 56.5%

**Q.** What about the viability, T/C [6] of the same compound?
**A.** 41.8%

**Q.** And the viability, T/C [21]?
**A.** 26.8%

**Q.** And the viability, T/C [22]?
**A.** 19.7%

**Q.** And the viability, T/C [23]?
**A.** 8.13%

**Q.** What about the viability, T/C [24] of the same compound?
**A.** 5.68%

**Q.** And the viability, T/C [7]?
**A.** 75.8%

**Q.** And the viability, T/C [8]?
**A.** 34.2%

**Q.** And the viability, T/C [25]?
**A.** 31.4%

**Q.** And the viability, T/C [26]?
**A.** 19.3%

**Q.** What about the viability, T/C [27] of the same compound?
**A.** 5.12%

**Q.** And the viability, T/C [28]?
**A.** 5.59%

**Q.** What about the viability, T/C [9] of the same compound?
**A.** 63.8%

**Q.** And the viability, T/C [10]?
**A.** 39.4%

**Q.** And the viability, T/C [29]?
**A.** 35.3%

**Q.** What about the viability, T/C [30] of the same compound?
**A.** 19.8%

**Q.** What about the viability, T/C [31] of the same compound?
**A.** 2.97%

**Q.** What about the viability, T/C [32] of the same compound?
**A.** 4.99%

**Q.** What about the viability, T/C [11] of the same compound?
**A.** 49.4%

**Q.** And the viability, T/C [12]?
**A.** 33.8%

**Q.** And the viability, T/C [33]?
**A.** 37.7%

**Q.** And the viability, T/C [34]?
**A.** 16.8%

**Q.** What about the viability, T/C [35] of the same compound?
**A.** 5.04%

**Q.** What about the viability, T/C [36] of the same compound?
**A.** 5.34%
